# Results from patent US9763445B2, “Safened herbicidal compositions comprising a pyridine carboxylic acid herbicide” (Dow AgroSciences, LLC, priority 2014, dated 2017).
# Read-outs that look alike come from different tables or passages of the source.
# Legend:
# kochia (KCHSC) = test: Postemergence greenhouse trial, % visual injury on kochia; type: in vivo, Kochia scoparia; settings: Bassia scoparia, post-emergence, read-out: % visual injury, Ob; for pest or weed control at 4.375 g/ha / pest or weed control at 8.75 g/ha / pest or weed control at 17.5 g/ha / pest or weed control at 35 g/ha / pest or weed control at 70 g/ha: KCHSC
# Procedure: (§1) Seeds of the desired test plant species were planted in Sun Gro MetroMix® 306 planting mixture, which typically has a pH of 6.0 to 6.8 and an organic matter content of about 30 percent, in plastic pots with a surface area of 103.2 square centimeters (cm^2). When required to ensure good germination and healthy plants, a fungicide treatment and/or other chemical or physical treatment was applied. The plants were grown for 7-36 days (d) in a greenhouse with an approximate 14-hour (h) photoperiod which was maintained at about 23° C. during the day and 22° C. during the night. Nutrients and water were added on a regular basis and supplemental lighting was provided with overhead metal halide 1000-Watt lamps as necessary. The plants were employed for testing when they reached the second or third true leaf stage.
# (§2) Weighed amounts of technical material were dissolved in a volume of 97:3 volume per volume (v/v) acetone/dimethyl sulfoxide (DMSO) to stock solutions. […] The concentrated stock solutions were diluted with an aqueous mixture of 1.5% v/v of Agri-dex crop oil concentrate to provide the appropriate application rates. Compound requirements are based upon a 12 milliliter (mL) application volume at a rate of 187 liters per hectare (L/ha). Stocks solutions of the safeners were prepared following the same procedure. Spray solutions of the safeners and experimental compound mixtures were prepared by adding the stock solutions to the appropriate amount of dilution solution to form a 12 mL spray solution in two-way combinations. Formulated compounds were applied to the plant material with an overhead Mandel track sprayer equipped with 8002E nozzles calibrated to deliver 187 L/ha over an application area of 0.503 square meters (m^2) at a spray height of 18 inches (43 centimeters (cm)) above average plant canopy. Control plants were sprayed in the same manner with the solvent blank. All herbicide application (component a) rates are in g ae/ha and all safener (component b) rates are in g ai/ha.
# (§3) The treated plants and control plants were placed in a greenhouse as described above and watered by sub-irrigation to prevent wash-off of the test compounds. After 20-22 d, the condition of the test plants as compared with that of the control plants was determined visually and scored on a scale of 0 to 100 percent where 0 corresponds to no injury and 100 corresponds to complete kill. Colby's equation was used to determine the herbicidal effects expected from the mixtures. […]
# spring wheat (TRZAS) = test: Postemergence greenhouse trial, % visual injury on spring wheat; type: in vivo, Triticum aestivum
# Procedure: as §1, §2
# (§4) The treated plants and control plants were placed in a greenhouse as described above and watered by sub-irrigation to prevent wash-off of the test compounds. After 20-22 d, the condition of the test plants as compared with that of the control plants was determined visually and scored on a scale of 0 to 100 percent where 0 corresponds to no injury and 100 corresponds to complete kill. The condition of the test plants was compared with that of the control plants as determined visually and scored on a scale of 0 to 100 percent, where 0 corresponds to no injury and 100 corresponds to complete kill. Colby's equation was used to determine the herbicidal effects expected from the mixtures.
# (§5) The safener cloquintocet-mexyl was combined with compound 1, compound 2, compound 4, compound 5, and compound 6, and applied to corn/maize (ZEAMX) and spring wheat (TRZAS) and the phytotoxicity of the herbicidal compositions was measured. In addition, the efficacy of the herbicidal composition on velvetleaf (ABUTH, Abutilon theophrasti), pigweed (AMARE, Amaranthus retroflexus), winter rape (BRSNW, Brassica napus), lambsquarters (CHEAL, Chenopodium album), thistle (CIRAR, Cirsium arvense), nutsedge (CYPES, Cyperus esculentus), poinsettia (EPHHL, Euphorbia heterophylla), wild buckwheat (POLCO, Polygonum convolvulus), giant foxtail (SETFA, Setaria faberi), and chickweed (STEME, Stellaria media) was evaluated.
# (§6) The safener cloquintocet-mexyl was combined with compound 1, compound 2, compound 3, compound 7, compound 8, compound 9, compound 10, compound 11, compound 12, compound 13, compound 14, compound 15, compound 16, compound 17, compound 18, compound 19, and compound 20, and applied to spring wheat (TRZAS), winter wheat (TRZAW), and spring barley (HORVS) and the phytotoxicity of the herbicidal compositions was measured. […]
# common poppy (PAPRH) = test: Postemergence greenhouse trial, % visual injury on common poppy; type: in vivo, Papaver rhoeas; settings: Papaver rhoeas, post-emergence, PAPRH, applied alone, read-out: % visual injury, Ob
# Procedure: as §1, §2, §3
# winter rape (BRSNW) = test: Postemergence greenhouse trial, % visual injury on winter rape; type: in vivo, Brassica napus; settings: Brassica napus, post-emergence, BRSNW, read-out: % visual injury, Ob
# Procedure: as §1, §2, §4
# as §5, with “evaluated. […]” for “evaluated.”
# spring barley (HORVS) = test: Postemergence greenhouse trial, % visual injury on spring barley; type: in vivo, Hordeum vulgare
# Procedure: as §1, §2, §4, §6
# pigweed (AMARE) = test: Postemergence greenhouse trial, % visual injury on pigweed; type: in vivo, Amaranthus retroflexus; settings: Amaranthus retroflexus, post-emergence, read-out: % visual injury, Ob
# Procedure: as §1, §2, §4
# as §5, with “evaluated. […]” for “evaluated.”
# The safener cloquintocet-acid and a number of agriculturally acceptable esters and salts (-mexyl, -dimethylammonium salt and -triethylammonium salt) were combined in varying ratios with compound 1 and applied to spring wheat (TRZAS), winter wheat (TRZAW), and spring barley (HORVS), and the phytotoxicity of the herbicidal compositions was measured. […]
# lambsquarters (CHEAL) = test: Postemergence greenhouse trial, % visual injury on lambsquarters; type: in vivo, Chenopodium album; settings: Chenopodium album, post-emergence, read-out: % visual injury, Ob
# Procedure: as §1, §2, §4, §5, §6
# prickly lettuce (LACSE) = test: Postemergence greenhouse trial, % visual injury on prickly lettuce; type: in vivo, Lactuca serriola; settings: LACSE, CQC-m 0
# Procedure: as §1, §2, §3
# [1] = test system: bird's-eye speedwell (VERPE); test: Postemergence greenhouse trial, % visual injury on bird's-eye speedwell; type: in vivo, Veronica persica; settings: VERPE, CQC-m 0
# Procedure: as §1, §2, §3
# wild mustard (SINAR) = test: Postemergence greenhouse trial, % visual injury on wild mustard; type: in vivo, Sinapis arvensis; settings: Brassica, post-emergence, SINAR, CQC-m 0, read-out: % visual injury, Ob
# Procedure: as §1, §2, §3
# [2] = TRZAS, 4.375 g/ha, applied alone
# [3] = TRZAS, 8.75 g/ha, applied alone
# [4] = TRZAS, 17.5 g/ha, applied alone
# [5] = HORVS, 4.375 g/ha, applied alone
# [6] = HORVS, 8.75 g/ha, applied alone
# [7] = HORVS, 17.5 g/ha, applied alone
compound,measurement,setting,value
COc1c(N)nc(-c2ccc3sccc3c2)nc1C(=O)O [compound 19],pest or weed control at 4.375 g/ha,kochia (KCHSC); applied alone,0%
same,pest or weed control at 8.75 g/ha,kochia (KCHSC); applied alone,0%
same,pest or weed control at 17.5 g/ha,"kochia (KCHSC); 17.5 g/ha, applied alone",0%
same,pest or weed control at 35 g/ha,"kochia (KCHSC); 35 g/ha, applied alone",10%
same,pest or weed control at 70 g/ha,"kochia (KCHSC); 70 g/ha, applied alone",60%
same,"% visual injury, Ob",spring wheat (TRZAS); [2],0%
same,"% visual injury, Ob",spring wheat (TRZAS); [3],10%
same,"% visual injury, Ob",spring wheat (TRZAS); [4],30%
same,"% visual injury, Ob","spring wheat (TRZAS); TRZAS, 35 g/ha, applied alone",40%
same,"% visual injury, Ob","spring wheat (TRZAS); TRZAS, 70 g/ha, applied alone",50%
same,pest or weed control at 4.375 g/ha,common poppy (PAPRH),80%
same,pest or weed control at 8.75 g/ha,common poppy (PAPRH),80%
same,pest or weed control at 17.5 g/ha,common poppy (PAPRH),85%
same,pest or weed control at 35 g/ha,common poppy (PAPRH),90%
same,pest or weed control at 70 g/ha,common poppy (PAPRH),95%
same,plant injury at 4.375 g/ha,"winter rape (BRSNW); 4.375 g/ha, applied alone",0%
same,plant injury at 8.75 g/ha,"winter rape (BRSNW); 8.75 g/ha, applied alone",10%
same,plant injury at 17.5 g/ha,"winter rape (BRSNW); 17.5 g/ha, applied alone",20%
same,plant injury at 35 g/ha,"winter rape (BRSNW); 35 g/ha, applied alone",25%
same,plant injury at 70 g/ha,"winter rape (BRSNW); 70 g/ha, applied alone",30%
same,"% visual injury, Ob",spring barley (HORVS); [5],0%
same,"% visual injury, Ob",spring barley (HORVS); [6],10%
same,"% visual injury, Ob",spring barley (HORVS); [7],10%
same,"% visual injury, Ob","spring barley (HORVS); HORVS, 35 g/ha, applied alone",15%
same,"% visual injury, Ob","spring barley (HORVS); HORVS, 70 g/ha, applied alone",35%
COC(=O)c1nc(-c2ccc3sccc3c2)c(F)c(N)c1Cl [compound 18],pest or weed control at 4.375 g/ha,kochia (KCHSC); applied alone,30%
same,pest or weed control at 8.75 g/ha,kochia (KCHSC); applied alone,40%
same,pest or weed control at 17.5 g/ha,"kochia (KCHSC); 17.5 g/ha, applied alone",75%
same,pest or weed control at 35 g/ha,"kochia (KCHSC); 35 g/ha, applied alone",93%
same,pest or weed control at 70 g/ha,"kochia (KCHSC); 70 g/ha, applied alone",90%
same,"% visual injury, Ob",spring wheat (TRZAS); [2],10%
same,"% visual injury, Ob",spring wheat (TRZAS); [3],25%
same,"% visual injury, Ob",spring wheat (TRZAS); [4],40%
same,"% visual injury, Ob","spring wheat (TRZAS); TRZAS, 35 g/ha, applied alone",50%
same,"% visual injury, Ob","spring wheat (TRZAS); TRZAS, 70 g/ha, applied alone",70%
same,pest or weed control at 4.375 g/ha,common poppy (PAPRH),90%
same,pest or weed control at 8.75 g/ha,common poppy (PAPRH),90%
same,pest or weed control at 17.5 g/ha,common poppy (PAPRH),93%
same,pest or weed control at 35 g/ha,common poppy (PAPRH),93%
same,pest or weed control at 70 g/ha,common poppy (PAPRH),95%
same,"% visual injury, Ob",spring barley (HORVS); [5],15%
same,"% visual injury, Ob",spring barley (HORVS); [6],25%
same,"% visual injury, Ob",spring barley (HORVS); [7],40%
same,"% visual injury, Ob","spring barley (HORVS); HORVS, 35 g/ha, applied alone",50%
same,"% visual injury, Ob","spring barley (HORVS); HORVS, 70 g/ha, applied alone",70%
Nc1c(F)c(-c2ccc3cc[nH]c3c2F)nc(C(=O)[O-])c1Cl.[K+] [compound 7],pest or weed control at 20 g/ha,pigweed (AMARE),88%
same,pest or weed control at 20 g/ha,kochia (KCHSC),65%
same,"% visual injury, Ob","spring wheat (TRZAS); alone, 20 g/ha",10%
same,pest or weed control at 20 g/ha,lambsquarters (CHEAL),90%
same,"% visual injury, Ob","spring barley (HORVS); alone, 20 g/ha",5%
COC(=O)c1nc(-c2ccc3cc[nH]c3c2F)c(F)c(/N=C/N(C)C)c1Cl [compound 11],pest or weed control at 17.5 g/ha,"kochia (KCHSC); compound 17.5 g/ha, CQC-m 0",70%
same,pest or weed control at 35 g/ha,"kochia (KCHSC); compound 35 g/ha, CQC-m 0",90%
same,pest or weed control at 70 g/ha,"kochia (KCHSC); compound 70 g/ha, CQC-m 0",90%
same,"% visual injury, Ob","spring wheat (TRZAS); TRZAS, compound 17.5 g/ha, CQC-m 0",10%
same,"% visual injury, Ob","spring wheat (TRZAS); TRZAS, compound 35 g/ha, CQC-m 0",20%
same,"% visual injury, Ob","spring wheat (TRZAS); TRZAS, compound 70 g/ha, CQC-m 0",40%
same,"% visual injury, Ob",prickly lettuce (LACSE); compound 17.5 g/ha,0%
same,"% visual injury, Ob",prickly lettuce (LACSE); compound 35 g/ha,10%
same,"% visual injury, Ob",prickly lettuce (LACSE); compound 70 g/ha,40%
same,plant injury at 17.5 g/ha,"winter rape (BRSNW); compound 17.5 g/ha, CQC-m 0",95%
same,plant injury at 35 g/ha,"winter rape (BRSNW); compound 35 g/ha, CQC-m 0",100%
same,plant injury at 70 g/ha,"winter rape (BRSNW); compound 70 g/ha, CQC-m 0",100%
same,"% visual injury, Ob",[1]; compound 17.5 g/ha,85%
same,"% visual injury, Ob",[1]; compound 35 g/ha,90%
same,"% visual injury, Ob",[1]; compound 70 g/ha,95%
same,"% visual injury, Ob","spring barley (HORVS); HORVS, compound 17.5 g/ha, CQC-m 0",10%
same,"% visual injury, Ob","spring barley (HORVS); HORVS, compound 35 g/ha, CQC-m 0",20%
same,"% visual injury, Ob","spring barley (HORVS); HORVS, compound 70 g/ha, CQC-m 0",40%
same,pest or weed control at 17.5 g/ha,wild mustard (SINAR); compound 17.5 g/ha,95%
same,pest or weed control at 35 g/ha,wild mustard (SINAR); compound 35 g/ha,100%
same,pest or weed control at 70 g/ha,wild mustard (SINAR); compound 70 g/ha,100%
